From patent publication US6727237B2, “Inhibitors of bacterial NAD synthetase” (priority 1998, dated 2004)

Assays:
[1] = system: Staphylococcus epidermitis; assay: Bacterial growth inhibition screen in LB media (absorbance 595 nm), percent inhibition; details: S. epidermitis
[2] = target: T1, bacterial NAD synthetase enzyme (Bacillus subtilis, UniProt P08164); assay: biochemical; type: biochemical
T1 sequence (P08164 2-272 limits assumed): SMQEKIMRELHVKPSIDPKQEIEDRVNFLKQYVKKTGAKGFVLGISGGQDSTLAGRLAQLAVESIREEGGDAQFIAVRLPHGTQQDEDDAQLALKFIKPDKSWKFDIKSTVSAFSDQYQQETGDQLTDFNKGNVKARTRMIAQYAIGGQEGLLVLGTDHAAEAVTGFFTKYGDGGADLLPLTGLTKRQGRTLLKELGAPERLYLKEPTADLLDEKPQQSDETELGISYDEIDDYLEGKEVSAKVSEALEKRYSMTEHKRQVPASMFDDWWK

[3] = compound at 0.2 mM (Table 312A)

FC(F)(F)c1ccc2cc(CCCC[n+]3cccc4ccccc43)[nH]c2c1 [Compound 397]
% Inhibition ([1]; concentration screened 10 uM): 5.85%
% Inhibition ([2]; compound at 0.1 mM (Table 314)): 4.51%

Fc1cc(F)c2[nH]c(CCC[n+]3ccccc3)cc2c1 [Compound 300]
% Inhibition ([1]; concentration screened 10 uM): 6.20%
% Inhibition [2, 3]: 11.79%

O=C(OCCCCCCCCc1cc2cc(C(F)(F)F)ccc2[nH]1)c1ccccc1-c1ccccc1 [Compound 614]
% Inhibition ([1]; concentration screened 100 uM): 20.35%
% Inhibition [2, 3]: 8.32%

Cc1ccc2[nH]c(CCCCCCC[n+]3cccc4ccccc43)cc2c1 [Compound 406]
% Inhibition ([1]; concentration screened 10 uM): 6.41%
% Inhibition [2, 3]: 10.96%

c1ccc(C(c2ccccc2)(c2ccccc2)c2ccc3[nH]c(CCCCCCC[n+]4ccc5ccccc5c4)cc3c2)cc1 [Compound 556]
% Inhibition ([1]; concentration screened 10 uM): 60.18%
% Inhibition ([2]; compound at 0.1 mM (Table 314)): 18.19%

c1ccc(-c2ccc3[nH]c(CCCCCC[n+]4ccc5ccccc5c4)cc3c2)cc1 [Compound 543]
% Inhibition ([1]; concentration screened 10 uM): 5.99%
% Inhibition [2, 3]: 28.06%

CC(C)c1ccc2[nH]c(CCCCCCCC[n+]3ccc4ccccc4c3)cc2c1 [Compound 539]
% Inhibition ([1]; concentration screened 10 uM): 4.67%
% Inhibition [2, 3]: 16.80%

Fc1ccc2[nH]c(CCCCC[n+]3cccc4ccccc43)cc2c1 [Compound 452]
% Inhibition ([1]; concentration screened 10 uM): 8.22%
% Inhibition [2, 3]: 20.04%

c1ccc(C(c2ccccc2)(c2ccccc2)c2ccc3[nH]c(CCCCC[n+]4cccc5ccccc54)cc3c2)cc1 [Compound 446]
% Inhibition ([1]; concentration screened 10 uM): 3.69%
% Inhibition [2, 3]: 13.78%

COc1ccc2[nH]c(CCCCC[n+]3ccc4ccccc4c3)cc2c1 [Compound 590]
% Inhibition ([1]; concentration screened 100 uM): 94.43%
% Inhibition [2, 3]: 28.82%

c1ccc(-c2ccc3[nH]c(CCCCC[n+]4ccccc4)cc3c2)cc1 [Compound 326]
% Inhibition ([1]; concentration screened 10 uM): 6.27%
% Inhibition ([2]; compound at 0.1 mM (Table 314)): 16.11%

FC(F)(F)c1ccc2[nH]c(CCCC[n+]3ccccc3)cc2c1 [Compound 361]
% Inhibition ([1]; concentration screened 10 uM): 5.57%
% Inhibition ([2]; compound at 0.1 mM (Table 314)): 16.08%

CCCCc1ccc2[nH]c(CCCCCC[n+]3ccc4ccccc4c3)cc2c1 [Compound 531]
% Inhibition ([1]; concentration screened 10 uM): 8.77%
% Inhibition [2, 3]: 36.55%

FC(F)(F)c1ccc2cc(CCCCCC[n+]3ccc4ccccc4c3)[nH]c2c1 [Compound 507]
% Inhibition ([1]; concentration screened 100 uM): 15.86%
% Inhibition [2, 3]: 26.18%

O=[N+]([O-])c1cc([N+](=O)[O-])c2[nH]c(CCCCCC[n+]3ccccc3)cc2c1 [Compound 309]
% Inhibition ([1]; concentration screened 100 uM): 99.07%
% Inhibition ([2]; compound at 0.1 mM (Table 314)): 41.47%

c1ccc(C(c2ccccc2)(c2ccccc2)c2ccc3[nH]c(CCC[n+]4cccc5ccccc54)cc3c2)cc1 [Compound 444]
% Inhibition ([1]; concentration screened 10 uM): 5.85%
% Inhibition ([2]; compound at 0.1 mM (Table 314)): 8.55%

COC(=O)c1ccc2[nH]c(CCCCCCCC[n+]3ccc4ccccc4c3)cc2c1 [Compound 599]
% Inhibition ([1]; concentration screened 100 uM): 44.14%
% Inhibition [2, 3]: 19.31%

O=C(c1ccccc1)c1ccc2[nH]c(CCCCC[n+]3cccc4ccccc43)cc2c1 [Compound 464]
% Inhibition ([1]; concentration screened 10 uM): 35.45%
% Inhibition [2, 3]: 13.50%

CC(C)c1ccc2[nH]c(CCCCC[n+]3ccc4ccccc4c3)cc2c1 [Compound 536]
% Inhibition ([1]; concentration screened 100 uM): 96.64%
% Inhibition [2, 3]: 32.49%

c1ccc2[nH]c(CCCCCCC[n+]3cccc4ccccc43)cc2c1 [Compound 394]
% Inhibition ([1]; concentration screened 10 uM): 7.03%
% Inhibition [2, 3]: 4.62%

CC(C)c1ccc2[nH]c(CCCCCCC[n+]3ccc4ccccc4c3)cc2c1 [Compound 538]
% Inhibition ([1]; concentration screened 10 uM): 43.05%
% Inhibition [2, 3]: 40.95%

O=C(OCCCCCCCc1cc2cc(Oc3ccccc3)ccc2[nH]1)c1ccncc1 [Compound 700]
% Inhibition ([1]; concentration screened 10 uM): 3.61%
% Inhibition [2, 3]: 2.54%

O=C(O)c1ccc2[nH]c(CCC[n+]3cccc4ccccc43)cc2c1 [Compound 492]
% Inhibition ([1]; concentration screened 10 uM): 11.00%
% Inhibition [2, 3]: 2.59%

CN(C)c1ccc(C(=O)OCCCCCCCCc2cc3cc(Oc4ccccc4)ccc3[nH]2)cc1 [Compound 620]
% Inhibition ([1]; concentration screened 100 uM): 12.69%
% Inhibition [2, 3]: 19.03%

c1ccc(-c2ccc3[nH]c(CCC[n+]4ccc5ccccc5c4)cc3c2)cc1 [Compound 540]
% Inhibition ([1]; concentration screened 10 uM): 1.60%
% Inhibition [2, 3]: 20.20%

O=C(c1ccccc1)c1ccc2[nH]c(CCCCC[n+]3ccccc3)cc2c1 [Compound 356]
% Inhibition ([1]; concentration screened 100 uM): 19.29%
% Inhibition [2, 3]: 1.95%

Fc1ccc2[nH]c(CCCCC[n+]3ccc4ccccc4c3)cc2c1 [Compound 560]
% Inhibition ([1]; concentration screened 100 uM): 98.43%
% Inhibition [2, 3]: 46.91%

O=C(OCCCCCCCCc1cc2cc(C(F)(F)F)ccc2[nH]1)C(c1ccccc1)c1ccccc1 [Compound 653]
% Inhibition ([1]; concentration screened 100 uM): 8.42%
% Inhibition [2, 3]: 20.59%

CC(=O)c1ccc2[nH]c(CCCCCCCOC(=O)c3cccnc3)cc2c1 [Compound 673]
% Inhibition ([1]; concentration screened 10 uM): 1.50%
% Inhibition [2, 3]: 1.81%
